{"source": "paper PMC5454592", "about": "“Pharmacological and Toxicological Properties of the Potent Oral γ-Secretase Modulator BPN-15606” (The Journal of Pharmacology and Experimental Therapeutics, 2017)", "key": {"[1]": {"assay": "Repeat-dose (9-day) efficacy study in rats", "format": "in vivo, Sprague–Dawley rats", "conditions": "male, Sprague-Dawley, rat, in vivo", "experimental": "(§1) Male C57BL/6J mice (n = 10/dose level) and male Sprague–Dawley rats (n = 14/dose level) were administered either vehicle (80% polyethylene glycol 400 v/v; 20% sterile water v/v and 0.1% Tween 20 v/v) or BPN-15606 (10, 25, and 50 mg/kg) once daily po for 7 consecutive days (mice) or 5, 25, and 50 mg/kg once daily po for 9 consecutive days (rats). […] Animals were sacrificed 4 hours following the dosing on day 7 of the 7-day oral treatment course (mice) and on day 9 of the 9-day oral treatment course (rats). Plasma and brain extracts were prepared (mice and rats); CSF was aspirated from the cisterna magnum with minimal to no blood contamination (rats only); and tissues were frozen at −70°C. Aβ peptides were quantitated in brain extracts and plasma (mice) or CSF and plasma (rats), as described previously, using Meso Scale multiplex kits and the Meso Scale Sector Imager 6000 ([Kounnas et al., 2010]). Statistical analysis was performed using GraphPad Prism software, and results are expressed as mean ± S.E.M. Analysis of variance was used to detect a significant effect. Drug levels of BPN-15606 were measured in plasma and brain extracts using the bioanalytical methods detailed above."}, "[2]": {"system": "Aβ42 and Aβ40 levels", "assay": "Repeat-dose (9-day) efficacy study in rats", "format": "in vivo, Sprague–Dawley rats", "experimental": "as §1"}, "[3]": {"system": "Aβ neuritic plaques", "assay": "Chronic repeat-dose efficacy in PSAPP transgenic mice (Thioflavin S plaque load)", "format": "in vivo", "experimental": "Thirty-five female double-transgenic mice, model presenilin amyloid precursor protein ([Jankowsky et al., 2004]), purchased from The Jackson Laboratory (Bar Harbor, ME) [B6.C3-Tg (APPswe, PSEN1dE9) 85Dbo/Mmjax, stock no. 0034829] and then bred in-house, were used in the study at 90 days of age. The mice were housed in a temperature-controlled room at a constant 22°C in a 12:12-hour light/dark cycle (lights off at 18:00), with food and water available ad libitum. Age-matched mice were housed by treatment group in groups of two to four per cage. All experimental procedures were reviewed and approved by Institutional Animal Care and Use Committee at University of California, San Diego. Subjects were randomly assigned to either the drug group (BPN-15606) or vehicle, with individual groups ranging from 9 to 10 mice. Mice were treated for 6 months with BPN-15606 at a dose of 10 mg/kg/d. For the drug administration, BPN-15606 was milled into standard rodent chow, processed by Research Diets (New Brunswick, NJ). All animals were weighed three times weekly to assess any adverse effects on normal weight gain during the 6-month treatment period. Food consumption was determined by weighing the metal cage, including the chow, to the nearest 0.1 g.\nTo determine Aβ fibril plaque load, floating coronal sections from AD and wild-type mice, n = 4 for each group, were washed in miliQ water and mounted on Fisherbrand Superfrost Plus microscope slides, before being processed for 1% (w/v) Thioflavin S staining. All images were taken with Leica (Mannheim, Germany) fluorescence microscope at 5× and with the same exposure across all images. The percent plaque within specified areas of a series of hippocampal and frontal cortex sections was quantified using ImageJ software from National Institutes of Health. Images were converted to 8-bit grayscale, and area of interest was traced and determined. Brightness and B/W threshold were adjusted appropriately and consistently across all images. The area of plaque particles within the area of interest was obtained, and the percent plaque was calculated. […]"}, "[4]": {"system": "HReN-mGAP AD ReN cells", "assay": "Three-dimensional human neural cell culture model of AD (MSD ELISA)", "format": "cell-based", "conditions": "70 nM", "experimental": "HReN-mGAP AD ReN cell expression APP^Swedish/London and Presenilin 1^ΔE9 were previously described ([Choi et al., 2014]). The HReN-mGAP AD ReN cells were three-dimensional (3D)–differentiated for 7 weeks, as previously described ([Choi et al., 2014]). The cultures were then harvested and analyzed for the soluble (conditioned media) and insoluble Aβ40/42/38 and p-tau/tau levels, using Meso Scale Discovery electrochemiluminescence system. BPN-15606 (70 nM) and the same volume of DMSO controls were treated in the last 4 weeks. The potential toxicity of the drugs was monitored by CytoTox-ONE (lactate dehydrogenase) assay after 1 week of the treatments. At the end of the treatments, the soluble (media) and the insoluble fractions (5 M GuHCl-soluble extracts) were collected and analyzed for Aβ38, Aβ40, and Aβ42 with MSD enzyme-linked immunosorbent assay (ELISA; V-Plex 6E10 Aβ40/Aβ42/Aβ38 kit). The custom-made plates were used for detecting total tau (BT2; ThermoFisher Scientific, Sommerset, NJ) and pThr181 tau (At270; ThermoFisher Scientific, Sommerset, NJ). The insoluble fraction was dissolved in 5 M GuHCl, and pThr181 tau, total tau, Aβ40, Aβ42, and Aβ38 concentrations were determined by MSD ELISA. The levels of the control protein Tuj1 were determined by dot-blot analysis in the GuHCl lysates (data not shown)."}, "[5]": {"assay": "Toxicokinetics in NHP (300 mg/kg repeat dose)", "format": "in vivo, cynomolgus macaques", "conditions": "cynomolgus monkey", "experimental": "The objectives of this study were to determine the MTD of BPN-15606, characterize potential toxicity, and calculate toxicokinetic parameters of BPN-15606 in adult male and female cynomolgus macaques following daily po dose administration at a near-MTD dose of BPN-15606 for 7 consecutive days. In the dose escalation phase to establish the MTD (phase A), male and female cynomolgus macaques (n = 2/sex) were administered single doses of BPN-15606 at 3, 10, 30, 100, and 300 mg/kg, with 2 to 4 days between each dose escalation (Fig. 10). […] The plasma drug concentrations at the approximate Tmax increased in a dose-dependent manner. […] Comprehensive evaluation of clinical pathology parameters (clinical chemistry, hematology), gross pathology, and histopathologic parameters was carried out at SRI International, according to their standardized protocols. Tissues examined histopathologically included the following: liver, lung, stomach, duodenum, colon, spleen, pancreas, thymus, heart, brain, and kidney."}, "[6]": {"assay": "in vivo", "conditions": "both sexes, cynomolgus monkey, po, repeat dose"}, "[7]": {"conditions": "10 mg/kg/d in chow for 6 months"}, "[8]": {"conditions": "last 4 weeks of 7-week 3D culture, media"}}}
{"smiles": "COc1nc(-c2cc(C)c(N[C@@H](C)c3ccc(F)cc3)nn2)ccc1-n1cnc(C)c1", "note": "[BPN-15606, (S)-N-(1-(4-fluorophenyl)ethyl)-6-(6-methoxy-5-(4-methyl-1H-imidazol-1-yl)pyridin-2-yl)-4-methylpyridazin-3-amine]", "values": [{"measurement": "NOAEL at 9 days", "setting": "[1]", "value": 50, "unit": "mg/kg"}, {"measurement": "safety margin based on dose", "setting": "[2]; rat, NOAEL 50 mg/kg vs lowest efficacious dose 5 mg/kg", "value": "≥ 10", "unit": "fold"}, {"measurement": "lowering of CSF Aβ42 levels", "setting": "[2]; rats, 5 mg/kg", "value": "~40", "unit": "%"}, {"measurement": "lowering of CSF Aβ42 levels", "setting": "[2]; rats, 25 mg/kg", "value": "70–75%"}, {"measurement": "lowering of plasma Aβ42", "setting": "[2]; rats, 25 mg/kg", "value": "> 90", "unit": "%"}, {"measurement": "clinical observations", "setting": "[2]; rats, 5, 25, 50 mg/kg po daily for 9 days", "value": "all animals appeared normal throughout the study"}, {"measurement": "necropsy findings at end of study", "setting": "[3]; 10 mg/kg/d for 6 months", "value": "no significant adverse findings"}, {"measurement": "accumulation of Aβ neuritic plaques in cortex (Thioflavin S, densitometry)", "setting": "[3]; [7]", "value": "significantly reduced accumulation of Aβ neuritic plaques"}, {"measurement": "accumulation of Aβ neuritic plaques in hippocampus (Thioflavin S, densitometry)", "setting": "[3]; [7]", "value": "significantly reduced accumulation of Aβ neuritic plaques"}, {"measurement": "soluble Aβ38 level", "setting": "[4]; [8]", "value": "increasing"}, {"measurement": "soluble Aβ40 level", "setting": "[4]; [8]", "value": "dramatically decreased"}, {"measurement": "soluble Aβ42/40 ratio", "setting": "[4]; [8]", "value": "dramatically decreased"}, {"measurement": "soluble Aβ42 level", "setting": "[4]; [8]", "value": "dramatically decreased"}, {"measurement": "insoluble Aβ40 level", "setting": "[4]; 5 M GuHCl-soluble extracts", "value": "decreased"}, {"measurement": "insoluble Aβ42 level", "setting": "[4]; 5 M GuHCl-soluble extracts", "value": "decreased"}, {"measurement": "insoluble pThr181 tau level", "setting": "[4]; 5 M GuHCl-soluble extracts", "value": "decreased"}, {"measurement": "insoluble total tau level", "setting": "[4]; 5 M GuHCl-soluble extracts", "value": "decreased"}, {"measurement": "half-life", "setting": "[5]; both sexes, plasma, po, 300 mg/kg, cynomolgus macaques, 300 mg/kg po, day 1", "value": 8.7, "unit": "h"}, {"measurement": "half-life", "setting": "[5]; both sexes, plasma, po, 300 mg/kg, cynomolgus macaques, 300 mg/kg po, day 6", "value": 10.2, "unit": "h"}, {"measurement": "Tmax", "setting": "[5]; both sexes, plasma, cynomolgus macaques, 300 mg/kg po", "value": "2 to 4", "unit": "h"}, {"measurement": "exposure (AUClast) day 6 relative to day 1", "setting": "[5]; both, in vivo, po, 300 mg/kg", "value": "about 1.7 fold"}, {"measurement": "MTD at 6 days", "setting": "[6]", "value": "< 300", "unit": "mg/kg/day"}]}
